Marks after values point to notes of the source that are not given here.
Experiments:
[1] = test system: cTnI-G203S mice; experiment: Echocardiography of treated cTnI-G203S mice; format: in vivo, mouse; details: for FS / HW:BW / IVSD / IVSS / LVDPW / LVEDD / LVESD / LVSPW: 10 μM i.p. 3×/wk/5 wk, mean
Description: Male mice expressing the human cTnI gene encoding the human disease-causing mutation cTnI-G203S were used for all studies. The mice develop hallmark features of HCM by 21 wk ([7], [13]). Male mice expressing the normal human cTnI gene were used as controls (wt). Ten-week-old mice were used for in vitro studies. For in vivo studies, 20- or 30-wk-old cTnI-G203S mice were treated with 10 μM AID-TAT or AID[S]-TAT via intraperitoneal injection, 3×/wk/5 wk. In vivo dose of AID-TAT or AID[S]-TAT (10 μM) was calculated based on blood volume, equating to ∼2 mg/kg total BW. Male animal models were used to eliminate potential differences in responses due to sex. Experiments were performed in a total of 21 wt (AID[S]-TAT), 6 wt (AID-TAT), 15 cTnI-G203S (AID[S]-TAT), and 26 cTnI-G203S (AID-TAT) mice. All animals were randomly assigned to treatment groups. All animal studies were approved by the Animal Ethics Committee of The University of Western Australia in accordance with the 2013 Australian Code for the Care and Use of Animals for Scientific Purposes ([58]).
Echocardiographic measurement of left ventricular function were performed on mice under light methoxyflurane anesthesia using an i13L probe on a Vivid 7 Dimension ultrasound system (GE Healthcare), as previously described ([13], [29], [30]). Each n represents the average of quantitative measurements from wt or cTnI-G203S mice for each treatment group. Detailed methods are provided in SI Appendix.
Echocardiographic measurement of left ventricular function were performed on mice under light methoxyflurane anesthesia using an i13L probe on a Vivid 7 Dimension ultrasound system (GE Healthcare, Little Chalfont, United Kingdom) as previously described (4, 7). Echocardiographic measurements were taken on M-mode in triplicate from separate mice at a sweep speed of 200 mm/s. Each n represents the average of quantitative measurements from wt or cTnI-G203S mice for each treatment group. Measurements of left ventricular end diastolic diameter (LVEDD), left ventricular end systolic diameter (LVESD), fractional shortening (FS), left ventricular posterior wall in diastole (LVDPW), left ventricular posterior wall in systole (LVSPW), interventricular septum in diastole (IVSD), interventricular septum in systole (IVSS) and end diastolic diameter (EDD) were made. FS was calculated by the formula [(LVEDD-LVESD)/EDD] x 100. […]
(BioAssay Systems, Hayward CA). All assays were performed as per manufacturer’s instructions, using a spectrophotometer (PowerWave XS).

[2] = test system: wt and cTnI-G203S cardiac myocytes; parameters: method as in PMID 19166857, PMID 24969422, PMID 24958783; details: cited from earlier work
[3] = Post-HCM treatment (from 30 wk), 35-wk-old cTnI-G203S mice, n = 5
[4] = Pre-HCM treatment (from 20 wk), 25-wk-old cTnI-G203S mice, n = 7 AID(S)-TAT, n = 6 AID-TAT

For QQLEEDLKGYLDWITQAE [AID-TAT], the FS [1, 3] was 48.48%, the “HW:BW” value [1, 3] was 5.81 mg/g and the IVSD [1, 3] was 0.95 mm. For the same sequence, the IVSS [1, 3] was 1.05 mm, the LVDPW [1, 3] was 1.26 mm and the LVEDD [1, 3] was 3.18 mm. The LVESD [1, 3] was 1.67 mm, the LVSPW [1, 3] was 1.43 mm and the FS [1, 4] was 38.26^† %. The “HW:BW” value [1, 4] was 4.70^† mg/g, the IVSD [1, 4] was 0.73^† mm and the IVSS [1, 4] was 0.82^† mm. The LVDPW [1, 4] was 1.23 mm, the LVEDD [1, 4] was 3.33^† mm and the LVESD [1, 4] was 2.06^† mm. The LVSPW [1, 4] was 1.37 mm, the “reversal of established HCM” value ([1]; cTnI-G203S mice with established HCM, 10 μM 3×/wk/5 wk) was “not effective at reversing the cardiomyopathy” and the “development of HCM” value ([1]; precardiomyopathic cTnI-G203S mice, 10 μM 3×/wk/5 wk) was “prevents the development of HCM”. The “elevated Ψm in response to activation of ICa-L” value [2] was “attenuates elevated Ψm”.

Reference: PMC7502707, “Characterization and validation of a preventative therapy for hypertrophic cardiomyopathy in a murine model of the disease” (Proceedings of the National Academy of Sciences of the …, 2020)
